Target: AICARFT (Homo sapiens, UniProt P31939)
Experiment: AICARFT activity, spectrophotometric enzyme assay (modified Black et al.)
Assay type: biochemical
Details: 50 mM Tris-HCl pH 7.5, 25° C., absorbance at 298 nm, substrates AICAR and FTHF, steady-state rate
Description: Enzymatic activity was measured spectrophotometrically using a modified assay developed by Black et al. (“A Rapid Assay for 5-Amino-4-imidazolecarboxamide Ribotide Transformylase,” Anal. Biochiem. 90 (1978), 397-401). The reaction volume was 1 mL and contained 50 mM Tris-HCl pH 7.5, 25 mM KCl, 20 mM 2-mercaptoethanol, variable concentrations of test compound in 1% DMSO, […] (5-aminoimidazole-4-carboxamideribonucleotide), […] tetrathydrofolate (FTHF), and 0.015 mM enzyme. The reaction was enzyme-initiated and followed by monitoring the increase in absorbance at 298 nm at 25° C. (ξ298=19.7×10^3 cm^−1M^−1). AICARFT inhibition constants (Ki) were determined from the dependence of the steady-state catalytic rate upon compound and substrate concentration.

Chain of AICARFT (P31939 whole entry): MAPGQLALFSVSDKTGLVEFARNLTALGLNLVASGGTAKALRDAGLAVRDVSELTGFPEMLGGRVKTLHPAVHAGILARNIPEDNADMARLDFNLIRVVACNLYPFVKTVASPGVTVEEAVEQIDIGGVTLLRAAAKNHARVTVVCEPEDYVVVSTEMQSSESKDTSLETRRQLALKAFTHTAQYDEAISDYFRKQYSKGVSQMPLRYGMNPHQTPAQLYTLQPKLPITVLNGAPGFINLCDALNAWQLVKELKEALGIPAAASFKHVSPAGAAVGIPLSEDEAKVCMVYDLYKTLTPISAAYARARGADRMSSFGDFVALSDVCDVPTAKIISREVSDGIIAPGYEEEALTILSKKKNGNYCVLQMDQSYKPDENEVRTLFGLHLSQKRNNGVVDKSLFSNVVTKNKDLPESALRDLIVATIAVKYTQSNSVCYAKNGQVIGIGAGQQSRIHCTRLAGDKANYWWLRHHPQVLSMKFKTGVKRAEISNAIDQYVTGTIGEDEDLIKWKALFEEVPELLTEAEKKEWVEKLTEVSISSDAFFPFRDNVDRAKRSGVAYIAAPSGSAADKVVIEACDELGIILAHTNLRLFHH

Row | Structure (SMILES) | Ki
1 | O=C(O)c1ccc(CCCCCSc2nc(-c3ccccc3)cc(=O)[nH]2)s1 [Compound 1, 5-(5-[(6-Phenyl-4(3H)-oxopyrimidin-2-yl)thio]pentyl)thiophene2-carboxylic acid] | 3500 nM
2 | N#Cc1c(-c2ccc(-c3cccs3)s2)nc(SCc2ccc(S(=O)(=O)Nc3ccc(F)cc3)cc2)[nH]c1=O [Compound 14, N-(4-Fluorophenyl) 4-[([5-cyano-6-(5-[2-thienyl]thien-2-yl)-4(3H)-oxopyrimidin-2-yl]thio)methyl]benzenesulfonamide] | 590 nM
3 | COc1cc(NS(=O)(=O)c2ccc(F)cc2)ccc1CSc1nc(-c2ccc(-c3cccs3)s2)c(C#N)c(=O)[nH]1 [Compound 23, N-(4-[([5-Cyano-6-(5-[2-thienyl]thien-2-yl)-4(3H)-oxopyrimidin-2-yl]thio)methyl]-3-methoxyphenyl) 4-fluorobenzenesulfonamide] | 770 nM
4 | COc1cc(CSc2nc(-c3ccc(-c4cccs4)s3)c(C#N)c(=O)[nH]2)ccc1NS(=O)(=O)c1ccc(F)cc1 [Compound 24] | 1300 nM
5 | Cc1cc(CSc2nc(-c3ccc(-c4cccs4)s3)c(C#N)c(=O)[nH]2)ccc1NS(=O)(=O)c1ccc(F)cc1 [Compound 22, N-(4-[([5-Cyano-6-(5-[2-thienyl]thien-2-yl)4(3H)-oxopyrimidin-2-yl]thio)methyl]-2-methylphenyl) 4-fluorobenzenesulfonamide] | 1000 nM
6 | O=C(O)c1ccc(CCCSc2nc(-c3ccccc3)cc(=O)[nH]2)s1 [Compound 2, 5-(3-[(6-Phenyl-4(3H)-oxopyrimidin-2-yl)thio]propyl)thiophene-2-carboxylic acid] | 7200 nM
7 | O=C(O)CCC(NC(=O)c1ccc(CCCCSc2nc(-c3ccccc3)cc(=O)[nH]2)s1)C(=O)O (stereo not drawn) [Compound 11, N-(5-[5-([6-Phenyl-4(3H)-oxopyrimidin-2-yl]thio)butyl]thio2-yl)glutamic acid] | 6800 nM
8 | COC(=O)c1ccc(CCCCCSc2nc(-c3ccc(-c4ccccc4)cc3)cc(=O)[nH]2)s1 [Compound 4, Methyl 5-[5-([6-(4-biphenylyl)-4(3H)-oxopyrimidin-2-yl]thio)pentyl]-thiophene-2-carboxylate] | 54700 nM
9 | CN(c1ccc(CSc2nc(-c3ccc(-c4cccs4)s3)c(C#N)c(=O)[nH]2)cc1)S(=O)(=O)c1ccc(F)cc1 [Compound 20, N-(4-[([5Cyano-6(5-[2-thienyl]thien-2-yl)-4(3 H)-oxopyrimidin-2-yl]thio)methyl]phenyl)-N-methyl 4-fluorobenzenesulfonamide] | 1800 nM
10 | Cc1cc(CSc2nc(-c3ccc(-c4cccs4)s3)c(C#N)c(=O)[nH]2)ccc1S(=O)(=O)Nc1ccc(F)cc1 [Compound 17, N-(4-Fluorophenyl) 4-[([5-cyano-6-(5-[2-thienyl]thien-2-yl)-4(3H)-oxopyrimidin-2-yl]thio)methyl]-2-methylbenzenesulfonamide] | 1000 nM
11 | O=C(O)CCC(NC(=O)c1ccc(CCCSc2nc(-c3ccccc3)cc(=O)[nH]2)s1)C(=O)O (stereo not drawn) [Compound 13, N-(5-[3-([6Phenyl-4(3H)-oxopyrimidin-2-yl]thio)propyl]theno-2-yl)glutamic acid] | 5300 nM
12 | O=C(O)CCC(NC(=O)c1ccc(CCSc2nc(-c3ccccc3)cc(=O)[nH]2)s1)C(=O)O (stereo not drawn) [Compound 12, N-(5-[2-([6-Phenyl-4(3H)-oxopyrimidin-2-yl]thio)ethyl]theno-2-yl)glutamic acid] | 8900 nM
13 | O=C(O)CCC(NC(=O)c1ccc(CCCCCSc2nc(-c3ccccc3)cc(=O)[nH]2)s1)C(=O)O (stereo not drawn) [Compound 9, N-(5-[5-([6-Phenyl-4(3H)-oxopyrimidin-2-yl]thio)pentyl]theno-2-yl)glutamic acid] | 460 nM
14 | N#Cc1c(-c2ccc(-c3cccs3)s2)nc(SCc2cccc(NS(=O)(=O)c3ccc(F)cc3)c2)[nH]c1=O [Compound 25, N(3-[([5-Cyano-6-(5-[2-thienyl]thien-2-yl)-4(3H)-oxopyrimidin-2-yl]thio)methyl]phenyl) 4-fluorobenzenesulfonamide] | 1400 nM
15 | CN(c1ccc(F)cc1)S(=O)(=O)c1ccc(CSc2nc(-c3ccc(-c4cccs4)s3)c(C#N)c(=O)[nH]2)cc1 [Compound 15, N-(4-Fluorophenyl)-N-methyl 4-[([5cyano-6-(5-[2-thienyl]thien-2-yl)-4(3H)-oxopyrimidin-2-yl]thio)methyl]benzenesulfonamide] | 2100 nM

Now those with a lower Ki, led by results:

Row | Ki | Structure (SMILES)
16 | 430 nM | O=C(O)c1ccc(CCCCCSc2nc(-c3ccc(Oc4ccccc4)cc3)cc(=O)[nH]2)s1 [Compound 6, 5-[5-([6-(4-Phenoxypheuyl)-4(3H)-oxopyrimidin-2-yl]thio)pentyl]thiophene-2-carboxylic acid]
17 | 430 nM | Cc1ccc2cc(NS(=O)(=O)c3ccc(CSc4nc(-c5ccc(-c6cccs6)s5)c(C#N)c(=O)[nH]4)cc3)ccc2n1 [Compound 16, N-(2-Methylquinolin-6-yl) 4-[([5-cyan-6-(5-[2-thienyl]thien-2yl)-4(3H)-oxopyrimidin-2-yl]thio)methyl]benzenesulfonamide]
18 | 400 nM | N#Cc1c(-c2ccc(-c3cccs3)s2)nc(SCc2ccc(S(=O)(=O)Nc3ccc(F)cc3)cc2Cl)[nH]c1=O [Compound 19, N-(4-Fluorophenyl) 4-[([5-cyano-6-(5-[2-thienyl]thien-2-yl)-4(3H)-oxopyrimidin-2-yl]thio)methyl]-3-chlorobenzenesulfonamide]
19 | 380 nM | N#Cc1c(-c2ccc(-c3cccs3)s2)nc(SCc2ccc(NS(=O)(=O)c3ccc(F)cc3)cc2)[nH]c1=O [Compound 18, N-(4-[([5-Cyano-6-(5-[2-thienyl]thien-2-yl)-4(3H)-oxopyrimidin-2-yl]thio)methyl]phenyl) 4-fluorobenzenesulfonamide]
20 | 370 nM | O=C(O)c1ccc(CCCCCSc2nc(-c3cccc(-c4nn[nH]n4)c3)cc(=O)[nH]2)s1 [Compound 26, 5-[5-([6-(3-[1(H)-Tetrazol-5-yl]phenyl)-4(3H)-oxopyrimidin-2-yl]thio)pentyl]thiophene-2-carboxylic acid]
21 | 280 nM | O=C(O)c1ccc(CCCCCSc2nc(-c3ccc(-c4cccs4)s3)cc(=O)[nH]2)s1 [Compound 3, 5-[5-([6-(5-[2-Thienyl]thien-2-yl)-4(3H)-oxopyrimidin-2-yl]thio)pentyl]thiophene-2-carboxylic acid]
22 | 270 nM | O=C(O)c1ccc(CCCCCSc2nc(-c3ccc(-c4ccccc4)cc3)cc(=O)[nH]2)s1 [Compound 5, 5-[5-([6-(4-Biphenylyl)-4(3H)-oxopyrimidin-2-yl]thio)pentyl]thiophene-2-carboxylic acid]
23 | 220 nM | O=C(O)c1ccc(CCCCCSc2nc(-c3ccc(N4CCOCC4)cc3)cc(=O)[nH]2)s1 [Compound 7, 5-[5-([6-(4-Morpholinylphenyl)-4(3H)-oxopyrimidin-2-yl]thio)pentyl]-thiophene-2-carboxylic acid]
24 | 83 nM | N#Cc1c(-c2ccc(-c3cccs3)s2)nc(SCc2ccc(S(=O)(=O)NCCc3c[nH]c4ccccc34)cc2)[nH]c1=O [Compound 27, N-(2-[1(H)-indol-3-yl]-ethyl) 4-[([5-cyano-6-(5-[2-thienyl]thien-2-yl)-4(3H)-oxopyrimidin-2-yl]thio)methyl]benzenesulfonamide]
25 | 40 nM | N#Cc1c(-c2ccc(-c3cccs3)s2)nc(SCCCCCc2ccc(C(=O)O)s2)[nH]c1=O [Compound 8, [5-([5-Cyano-6-(5-[2-thienyl]thien-2-yl)-4(3H)-oxopyrimidin-2-yl]thio)pentyl]thiopbene-2-carboxylic acid]
26 | 29 nM | N#Cc1c(-c2ccc(-c3cccs3)s2)nc(SCc2ccc(NS(=O)(=O)c3ccc(F)cc3)cc2Cl)[nH]c1=O [Compound 21, N-(3-Chloro-4-[([5-cyano-6-(5-[2-thienyl]thien-2-yl)-4(3H)-oxopyrimidin-2-yl]thio)methyl]phenyl) 4-fluorobenzenesulfonamide]
27 | 4 nM | N#Cc1c(-c2ccc(-c3cccs3)s2)nc(SCCCCCc2ccc(C(=O)NC(CCC(=O)O)C(=O)O)s2)[nH]c1=O (stereo not drawn) [Compound 10, N-(5-[5-([5-Cyano-6-(5-[2-thienyl]thien-2-yl)-4(3H)-oxopyrimidin-2-yl]thio)pentyl]theno-2-yl)glutamic acid]

— patent US6525050B1, “(4-oxo-2-pyrimidinyl)thioalkyl compounds useful as AICARFT inhibitors” (Agouron Pharmaceuticals, Inc., priority 1998, dated 2003)
